Data as given in ChEMBL document CHEMBL3044739, “Synthesis and cytotoxicity of novel N-sulfonyl-1,2,3,4-tetrahydroisoquinoline thiosemicarbazone derivatives” (Med Chem Res, 2013).
In brackets after ≈: the same amount, converted by molar mass.

Assays:
Format in all cases: functional, cell-based
MOLT-3 = experiment: Cytotoxicity against Homo sapiens (human) MOLT3 cells assessed as survival after 3 days by crystal violet staining; conditions: MOLT-3, 72 h
HepG2 = experiment: Cytotoxicity against Homo sapiens (human) HepG2 cells assessed as survival after 3 days by crystal violet staining; conditions: HepG2, 72 h
[1] = Cytotoxicity against Homo sapiens (human) HuCCa1 cells assessed as survival after 3 days by crystal violet staining; conditions: HuCC-A1, 72 h
A549 = experiment: Cytotoxicity against Homo sapiens (human) A549 cells assessed as survival after 3 days by crystal violet staining; conditions: A549, 72 h

SMILES	IC50 (MOLT-3) [µg/mL]	IC50 (HepG2) [µg/mL]	IC50 [1] [µg/mL]	IC50 (A549) [µg/mL]
COc1cc([C@@H]2c3cc4c(cc3[C@@H](O[C@@H]3O[C@@H]5CO[C@@H](C)O[C@H]5[C@H](O)[C@H]3O)[C@H]3COC(=O)[C@H]23)OCO4)cc(OC)c1O [ETOPOSIDE]	0.024 (≈ 0.0408 µM)	16 (≈ 27.2 µM)	–	–
C/C(=N\NC(N)=S)C1c2ccccc2CCN1S(=O)(=O)c1ccc([N+](=O)[O-])cc1 (centres undefined)	18.2 (≈ 42.1 µM)	32.3 (≈ 74.6 µM)	> 50	> 50
Cc1ccc(S(=O)(=O)N2CCc3ccccc3C2/C(=N/NC(N)=S)c2ccccc2)cc1 (centres undefined)	7.85 (≈ 16.9 µM)	> 50	> 50	> 50
COc1ccc(S(=O)(=O)N2CCc3cc(OC)c(OC)cc3C2/C(=N/NC(N)=S)c2ccccc2)cc1 (centres undefined)	10.4 (≈ 19.3 µM)	> 50	> 50	> 50
C/C(=N\NC(N)=S)C1c2ccccc2CCN1S(=O)(=O)c1ccc(C)cc1 (centres undefined)	19 (≈ 47.2 µM)	46 (≈ 114 µM)	> 50	> 50
COc1cc2c(cc1OC)C(/C(C)=N/NC(N)=S)N(S(=O)(=O)c1ccc([N+](=O)[O-])cc1)CC2 (centres undefined)	42.3 (≈ 85.7 µM)	> 50	> 50	> 50
NC(=S)N/N=C(\c1ccccc1)C1c2ccccc2CCN1S(=O)(=O)c1ccc([N+](=O)[O-])cc1 (centres undefined)	11.3 (≈ 22.7 µM)	> 50	> 50	> 50
COc1ccc(S(=O)(=O)N2CCc3cc(OC)c(OC)cc3C2/C(C)=N/NC(N)=S)cc1 (centres undefined)	2.13 (≈ 4.45 µM)	10.5 (≈ 21.9 µM)	31 (≈ 64.8 µM)	> 50
COc1cc2c(cc1OC)C(/C(=N/NC(N)=S)c1ccccc1)N(S(=O)(=O)c1ccc(Cl)cc1)CC2 (centres undefined)	5.03 (≈ 9.23 µM)	> 50	> 50	> 50
COc1cccc2c1C(=O)c1c(O)c3c(c(O)c1C2=O)C[C@@](O)(C(=O)CO)C[C@@H]3O[C@H]1C[C@H](N)[C@H](O)[C@H](C)O1 [DOXORUBICIN]	–	0.23 (≈ 0.423 µM)	0.35 (≈ 0.644 µM)	0.38 (≈ 0.699 µM)
COc1ccc(S(=O)(=O)N2CCc3ccccc3C2/C(=N/NC(N)=S)c2ccccc2)cc1 (centres undefined)	8.44 (≈ 17.6 µM)	> 50	> 50	> 50
C/C(=N\NC(N)=S)C1c2ccccc2CCN1S(=O)(=O)c1cccc([N+](=O)[O-])c1 (centres undefined)	18.1 (≈ 41.7 µM)	38.5 (≈ 88.8 µM)	> 50	> 50
COc1cc2c(cc1OC)C(/C(=N/NC(N)=S)c1ccccc1)N(S(=O)(=O)c1ccc(C)cc1)CC2 (centres undefined)	8.45 (≈ 16.1 µM)	21.5 (≈ 41 µM)	> 50	> 50
COc1cc2c(cc1OC)C(/C(C)=N/NC(N)=S)N(S(=O)(=O)c1ccc(C)cc1)CC2 (centres undefined)	> 50	> 50	> 50	> 50
COc1ccc(S(=O)(=O)N2CCc3ccccc3C2/C(C)=N/NC(N)=S)cc1 (centres undefined)	15.6 (≈ 37.2 µM)	33.5 (≈ 80 µM)	> 50	> 50
COc1cc2c(cc1OC)C(/C(=N/NC(N)=S)c1ccccc1)N(S(=O)(=O)c1ccc([N+](=O)[O-])cc1)CC2 (centres undefined)	> 50	> 50	> 50	> 50
NC(=S)N/N=C(/c1ccccc1)c1nccc2ccccc12	0.72 (≈ 2.35 µM)	16 (≈ 52.2 µM)	35 (≈ 114 µM)	30 (≈ 97.9 µM)
COc1cc2c(cc1OC)C(C(=O)c1ccccc1)N(S(=O)(=O)c1ccc(C)cc1)CC2 (centres undefined)	> 50	> 50	> 50	> 50
